Data on one compound can be found in ChEMBL document CHEMBL1671730, “Rapid and sensitive liquid chromatography/mass spectrometry assay for caspofungin in human aqueous humor” (Antimicrob Agents Chemother, 2010).

Format in all cases: ADME, organism-based, Aqueous humor of eyeball
Common to all, as to conditions: in vivo

The species entered for data set [1] is Homo sapiens. Briefly: Drug level in human aqueous humor sample measured on basis of interday target compound concentration of 30 ng/ml by LC/MS method.
The species entered for data set [2] is Homo sapiens. Briefly: Drug level in human aqueous humor sample measured on basis of interday target compound concentration of 4000 ng/ml by LC/MS method.
For data set [3], the species on record is Homo sapiens. Put plainly: Drug level in human aqueous humor sample measured on basis of interday target compound concentration of 300 ng/ml by LC/MS method.
For data set [4], the species on record is Homo sapiens. Put plainly: Drug level in human aqueous humor sample measured on basis of intraday target compound concentration of 30 ng/ml by LC/MS method.
Data set [5] is filed under the species Homo sapiens. Put plainly: Drug level in human aqueous humor sample measured on basis of intraday target compound concentration of 4000 ng/ml by LC/MS method.
The species named for data set [6] is Homo sapiens. Put plainly: Drug level in human aqueous humor sample measured on basis of intraday target compound concentration of 300 ng/ml by LC/MS method.

`CC[C@H](C)C[C@H](C)CCCCCCCCC(=O)N[C@H]1C[C@@H](O)[C@@H](NCCN)NC(=O)[C@@H]2[C@@H](O)CCN2C(=O)[C@H]([C@H](O)CCN)NC(=O)[C@H]([C@H](O)[C@@H](O)c2ccc(O)cc2)NC(=O)[C@@H]2C[C@@H](O)CN2C(=O)[C@H]([C@@H](C)O)NC1=O` [CASPOFUNGIN]: the Drug uptake is 31.4 ng/mL in the data set listed under Homo sapiens [1]; 3965 ng/mL in the data set listed under Homo sapiens [2]; 282 ng/mL in the data set listed under Homo sapiens [3]; 26.9 ng/mL in the data set listed under Homo sapiens [4]; 3986 ng/mL in the data set listed under Homo sapiens [5]; 280 ng/mL in the data set listed under Homo sapiens [6].
